From patent US11273152B2, “TRPV2 antagonists” (Instituto de Medicina Molecular João Lobo Antunes, priority 2017, dated 2022)
“Also recorded” adds a separate entry of the source. Where two headings read alike, the source gives them in different places.

Key:
[1] = system: Huh-7; test: Wound-healing scratch assay, Huh-7; type: cell-based
[2] = system: chiru TRPV2 orthologue; test: Isothermal titration calorimetry, chiru TRPV2; type: binding; details: chiru TRPV2 constructs; 100 μM
[3] = molecular target: TRPC7 (Homo sapiens, UniProt Q9HCX4); test: Fluorescence cell-based assay, TRPC7; details: membrane potential dye, spread in log units, duplicate
Chain of TRPC7 (Q9HCX4 whole entry): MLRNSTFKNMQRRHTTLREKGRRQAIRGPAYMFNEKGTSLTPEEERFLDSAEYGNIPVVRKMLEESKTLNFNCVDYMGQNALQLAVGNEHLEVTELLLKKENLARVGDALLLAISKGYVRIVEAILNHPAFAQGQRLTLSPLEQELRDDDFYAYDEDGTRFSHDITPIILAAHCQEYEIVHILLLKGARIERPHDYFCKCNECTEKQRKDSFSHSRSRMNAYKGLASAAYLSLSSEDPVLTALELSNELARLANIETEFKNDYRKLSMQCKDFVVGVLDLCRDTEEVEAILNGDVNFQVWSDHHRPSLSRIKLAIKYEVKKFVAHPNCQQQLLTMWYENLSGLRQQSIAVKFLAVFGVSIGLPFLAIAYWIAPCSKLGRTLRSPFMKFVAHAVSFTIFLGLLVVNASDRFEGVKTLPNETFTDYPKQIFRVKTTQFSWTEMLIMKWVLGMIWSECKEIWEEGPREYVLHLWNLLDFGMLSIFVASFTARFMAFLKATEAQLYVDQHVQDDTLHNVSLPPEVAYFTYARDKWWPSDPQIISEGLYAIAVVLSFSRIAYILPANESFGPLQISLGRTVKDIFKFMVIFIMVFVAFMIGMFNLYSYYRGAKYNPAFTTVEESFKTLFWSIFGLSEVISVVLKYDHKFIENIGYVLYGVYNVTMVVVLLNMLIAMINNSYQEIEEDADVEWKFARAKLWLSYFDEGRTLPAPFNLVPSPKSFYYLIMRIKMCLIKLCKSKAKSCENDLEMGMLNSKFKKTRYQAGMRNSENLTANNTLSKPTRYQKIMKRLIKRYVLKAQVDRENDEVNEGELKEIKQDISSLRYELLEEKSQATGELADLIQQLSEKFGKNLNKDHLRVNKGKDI
Protocol: (§1) The assays were performed at SB Discovery (Glasgow, UK) on a fee-for-service basis. Human TRP cells were trypsinised, counted and seeded in black, clear-bottomed 96 well plates at a density of 50,000 cells per well in 100 μL volume and incubated overnight. Next day, the cells were loaded with calcium 5 dye or membrane potential dye. TRPV1-5, TRPA1, TRPM2, TRPM3, and TRPM8 were tested using the calcium 5 dye. TRPC1, TRPC3-7, and TRPM4-5 were tested using the membrane potential dye. Both dye solutions were made up in HEPES buffered Hank's balanced salt solution (HBSS). Dye solution (90 μL) was added to the wells and incubated at 37° C. for 1 hour. Test compounds and standard inhibitors (10 μL) were then added to the wells and incubated at room temperature for 10 minutes. The plates were then placed in the flexstation and fluorescence monitored every 1.52 seconds. After 20 seconds agonist was added and the fluorescence monitored for 2 minutes at 485 nm/525 nm and 530 nm/565 nm, Ex/Em, for the calcium 5 dye and the membrane potential dye respectively. Controls-TRPV1: capsazepine; TRPV2: tranilast; TRPV3: ruthenium red; TRPV4: ruthenium red; TRPV5: Gd^3+; TRPA1, ruthenium red; TRPC1: Gd^3+; TRPC3: Pyr3; TRPC4: ML 204; TRPC5: ML 204; TRPC6: ML 204; TRPC7: SKF 96365; TRPM2: 2-APB; TRPM3: Mef acid; TRPM4: clotrimazole; TRPM5: TPPO; TRPM8: 2-APB. […]

[4] = molecular target: T1, TRPV2 (Homo sapiens, UniProt Q9Y5S1); test: Manual patch-clamp assay, hTRPV2 stable HEK-293 cells; type: cell-based; details: n=2; for IC50: read-out: IC50 against TRPV2, patch-clamp assay
T1 sequence (Q9Y5S1 1-764): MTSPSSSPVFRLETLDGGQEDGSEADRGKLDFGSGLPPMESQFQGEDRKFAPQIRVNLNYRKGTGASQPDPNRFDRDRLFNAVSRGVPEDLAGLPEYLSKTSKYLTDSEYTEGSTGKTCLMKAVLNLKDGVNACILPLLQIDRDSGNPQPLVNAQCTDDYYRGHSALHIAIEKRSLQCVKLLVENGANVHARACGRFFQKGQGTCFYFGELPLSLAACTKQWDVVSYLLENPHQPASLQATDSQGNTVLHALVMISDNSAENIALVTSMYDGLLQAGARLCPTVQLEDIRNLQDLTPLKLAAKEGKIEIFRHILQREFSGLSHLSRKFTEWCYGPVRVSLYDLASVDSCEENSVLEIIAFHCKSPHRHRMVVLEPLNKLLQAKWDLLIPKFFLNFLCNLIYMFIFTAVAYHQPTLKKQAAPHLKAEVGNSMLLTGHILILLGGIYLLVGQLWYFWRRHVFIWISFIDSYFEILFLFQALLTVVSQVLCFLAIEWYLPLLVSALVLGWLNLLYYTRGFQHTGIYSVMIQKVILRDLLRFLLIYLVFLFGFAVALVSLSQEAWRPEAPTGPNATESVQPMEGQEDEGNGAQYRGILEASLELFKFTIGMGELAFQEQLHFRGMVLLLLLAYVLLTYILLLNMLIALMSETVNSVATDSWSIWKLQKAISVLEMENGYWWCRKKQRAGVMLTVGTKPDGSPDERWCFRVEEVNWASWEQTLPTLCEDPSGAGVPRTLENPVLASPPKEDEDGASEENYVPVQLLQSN
Protocol: The assays were performed at SB Discovery (Glasgow, UK) on a fee-for-service basis. Concentration-response curves and washout assays were performed using a manual patch clamp method. HEK-293 cells were grown and prepared, according to the adapted procedure for hTRPV2 stable cell lines at SB Discovery. Cells were serum starved for approximately 24 hours and then changed to serum-containing media prior to electrophysiology testing. The manual patch-clamp assay was carried out at room temperature using a traditional electrophysiological unit. Cells were used within 2-3 hours after addition of serum containing media to the cells. The standard extracellular solution contained 145 mM NaCl, 4 mM KCl, 2 mM CaCl2, 1 mM MgCl2, 10 mM HEPES and 10 mM glucose. The pH was adjusted to 7.4 with NaOH, and the osmolarity was measured as 311 mOsm/L. The standard intracellular solution contained 50 mM KCl, 10 mM NaCl, 60 mM KF, 2 mM MgCl2, 20 mM EGTA and 10 mM HEPES. The pH was adjusted to 7.2 with KOH and the osmolarity was measured as 286 mOsm/L. A standard ramp protocol was used to monitor currents upon addition of control (extracellular solution) and compound solutions. The voltage protocol consisted of a series of voltage ramps from −100 mV to +100 mV, every 5 seconds, from a holding potential of −60 mV. The maximum outward current values during the recordings at +100 mV were used for analysis. Manual patch clamp experiments were carried out using an Axon 200B amplifier and a Digidata 1440A acquisition system from Axon Instruments (Molecular Devices, USA). The software program pClamp (version 10) from Axon Instruments was used to stimulate and record electrical activity. Capacitative transients were compensated electronically from the recordings, however the voltage drop across the series resistance and the liquid junction potential were not compensated. The series resistance was generally less than 10 MΩ, with a mean cell capacity of approximately 25 pF. The GraphPad Prism (version 5) software was used to analyze and plot all graphs. The agonist (cannabidiol; Abcam #ab120448) was prepared as 100 mM stock in 100% DMSO and diluted to 4 μM or 10 μM in physiological solution prior to testing. Piperlongumine was prepared as 100 mM stock in 100% DMSO and diluted to the specified concentrations in physiological solution (100, 50, 10, 1 and 0.1 μM), also containing 4 μM or 10 μM cannabidiol. Ruthenium red (Sigma, #R2751) was prepared daily as 10 mM stock ion distilled water and diluted to 100 μM in physiological solution.

[5] = system: U251 cells; test: Toxicity assay (CellTiter-Blue), U251; type: cell-based; details: 24, 48 and 72 hours; various concentrations
Protocol: 5,000 cells/well were seeded in 96 well plates with DMEM containing 2% FBS. The next day piperlongumine was added at various concentrations. […] At 24, 48 and 72 hours the media was removed and replaced with CellTiter-Blue (Promega, 1:20 in media). The plate was incubated for 90 minutes before measuring fluorescence intensity.

[6] = molecular target: TRPM5 (Homo sapiens, UniProt Q9NZQ8); test: Fluorescence cell-based assay, TRPM5; details: membrane potential dye, duplicate
Chain of TRPM5 (Q9NZQ8 whole entry): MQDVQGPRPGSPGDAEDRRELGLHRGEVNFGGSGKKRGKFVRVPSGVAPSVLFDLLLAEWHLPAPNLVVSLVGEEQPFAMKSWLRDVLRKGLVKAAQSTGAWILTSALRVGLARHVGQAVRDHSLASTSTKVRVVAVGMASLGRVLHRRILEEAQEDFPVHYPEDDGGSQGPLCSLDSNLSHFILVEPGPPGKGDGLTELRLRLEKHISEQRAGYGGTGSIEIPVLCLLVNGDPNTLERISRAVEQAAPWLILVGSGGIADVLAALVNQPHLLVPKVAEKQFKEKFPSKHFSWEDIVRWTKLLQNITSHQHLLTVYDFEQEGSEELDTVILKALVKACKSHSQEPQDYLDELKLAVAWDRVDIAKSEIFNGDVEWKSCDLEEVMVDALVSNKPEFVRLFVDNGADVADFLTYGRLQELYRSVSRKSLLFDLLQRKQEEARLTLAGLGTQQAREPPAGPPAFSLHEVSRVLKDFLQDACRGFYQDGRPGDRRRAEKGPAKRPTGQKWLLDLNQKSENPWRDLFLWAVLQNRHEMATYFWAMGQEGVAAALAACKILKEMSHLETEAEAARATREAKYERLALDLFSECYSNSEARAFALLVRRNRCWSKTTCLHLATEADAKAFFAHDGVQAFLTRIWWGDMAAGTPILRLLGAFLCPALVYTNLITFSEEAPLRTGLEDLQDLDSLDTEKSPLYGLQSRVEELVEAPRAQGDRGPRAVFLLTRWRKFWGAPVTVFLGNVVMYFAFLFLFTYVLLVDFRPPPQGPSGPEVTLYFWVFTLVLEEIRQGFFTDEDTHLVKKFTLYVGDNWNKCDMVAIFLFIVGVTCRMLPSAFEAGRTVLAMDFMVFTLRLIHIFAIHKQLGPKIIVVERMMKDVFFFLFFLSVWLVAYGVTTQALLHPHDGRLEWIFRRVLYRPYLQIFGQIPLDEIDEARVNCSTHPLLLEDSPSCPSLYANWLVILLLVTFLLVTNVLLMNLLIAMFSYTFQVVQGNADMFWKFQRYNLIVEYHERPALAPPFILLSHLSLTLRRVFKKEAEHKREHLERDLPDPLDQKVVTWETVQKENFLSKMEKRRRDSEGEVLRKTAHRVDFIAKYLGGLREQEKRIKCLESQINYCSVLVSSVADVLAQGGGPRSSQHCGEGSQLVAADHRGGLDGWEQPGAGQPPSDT
Protocol: as §1

[7] = system: sperm whale TRPV2 orthologue; test: Isothermal titration calorimetry, sperm whale TRPV2; type: binding; details: sperm whale TRPV2 constructs; 100 μM

## COc1cc(/C=C/C(=O)N2CCC=CC2=O)cc(OC)c1OC [Compound 1, piperlongumine]
[1]
  Cell migration, wound healing: reproducible
[2]
  Binding by isothermal titration calorimetry: did not bind
[3]
  IC50: 64 ± 0.06 µM
[4]; 1 at 100 μM, CBD 4 μM
  TRPV2 activity after washout (reversibility): fully restored upon washout; also recorded: full TRPV2 activity can be reinstated
[4]; stimulus: 4 μM CBD, spread in log units
  IC50: 1 µM
[4]; stimulus: 10 μM CBD
  IC50: > 100 µM
[5]
  Sensitivity of U251 cells: sensitive to PL in a dose- and time-dependent manner
[6]
  IC50: > 100 µM
[7]
  Binding by isothermal titration calorimetry: did not bind
